Laboratory results reported in patent publication US10736831B2, “Oral care compositions” (Colgate-Palmolive Company, priority 2015, dated 2020).

Tested on: five species mix of representative oral bacterial species
Experiment: resazurin cell viability assay (bacterial metabolism/viability)
Procedure: A five species mix of representative oral bacterial species was used to simulate the complex bacterial flora of the oral environment. A bacterial mix comprising Actinomyces viscosus, Lactobacillus casei, Streptococcus oralis, Fusobacteriaum nucleatum and Veillonella parvulal was incubated with the compound under investigation for 1 hour at 37° C., neutralized, washed and stained with 50 μg/ml resazurin solution. When viable bacteria are incubated with resazurin, the blue non-fluorescent dye is reduced by the bacteria to pink fluorescent resorufin. Fluorescence of the test sample is read at 560 nm excitation/590 nm emission and compared to the fluorescence of a standardized mixture of live and dead bacteria to determine the percentage of the initial population that is viable after incubation.
In order to minimize the effects of formula excipients, dilute 1:100 and 1:10 dentifrice slurries of formulations in water were used in the assay. As before, the test compound (as a dilute slurry) was incubated with the bacteria for 1 hour at 37° C., neutralized, washed and stained with 50 μg/ml resazurin solution. The percentage of viable bacteria was then determined.

Substance | % bacteria viable following treatment (aqueous test solutions, incubated 1 hour at 37° C., resazurin 50 μg/ml, fluorescence 560/590 nm) [%] | antibacterial efficacy compared with comparators (in words) (solutions of Example 1, Table 1)
sodium lauryl ether sulfate [0.5 wt. % SLES] | 19.94 | –
zinc coceth sulfate [0.5 wt. % ZCS] | – | significantly more efficacious than surfactant alone or an aqueous solution of 0.8 wt. % total elemental zinc
